# Earlier results as cited in patent US8415273B2, “Broadleaf perennial weed control agent for grass, and method for controlling broadleaf perennial weeds in grass” (Nippon Soda Co., Ltd., priority 2007, dated 2013).
# What was measured:
# [1] = test system: turf grasses such as Zoysia japonica and Zoysia tenuifolia; details: soil-based herbicide
# [2] = test system: broadleaf annual weeds such as chickweed and gramineous weeds such as crabgrass
compound,measurement,setting,value
"NC(=O)c1nc(-c2ccccc2)n(-c2ccc(Cl)c(COCC(F)(F)C(F)(F)F)c2)n1 [flupoxam, 1-[4-chloro-3-[(2,2,3,3,3-pentafluoropropoxy)methyl]phenyl]-5-phenyl-1H-1,2,4-triazole-3-carboxamide]",Detrimental effects on turf grasses,[1],no detrimental effects
same,Control action on annual weeds in grass,[2],powerful control action
